Results as given in PubChem BioAssay (NCI).
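All cell lines were grown in 96-well plates and treated with compound for 48 hours. GI50 = concentration required for 50% inhibition of growth. TGI denotes the concentration required for complete inhibition of growth.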

What was measured:
Experiment in all cases: NCI-60 cell line screen, 48 h
EKVX NSCLC = test system: EKVX NSCLC
SK-MEL-5 melanoma = test system: SK-MEL-5 melanoma
LOX IMVI melanoma = test system: LOX IMVI melanoma
RPMI-8226 leukemia = test system: RPMI-8226 leukemia
SN12C renal = test system: SN12C renal
UACC-62 melanoma = test system: UACC-62 melanoma
U251 CNS = test system: U251 CNS
HCC-2998 colon = test system: HCC-2998 colon
UACC-257 melanoma = test system: UACC-257 melanoma
HL-60(TB) leukemia = test system: HL-60(TB) leukemia
CAKI-1 renal = test system: CAKI-1 renal
UO-31 renal = test system: UO-31 renal
OVCAR-4 ovarian = test system: OVCAR-4 ovarian
SW-620 colon = test system: SW-620 colon
SNB-75 CNS = test system: SNB-75 CNS
OVCAR-5 ovarian = test system: OVCAR-5 ovarian
786-0 renal = test system: 786-0 renal
M14 melanoma = test system: M14 melanoma
SK-MEL-28 melanoma = test system: SK-MEL-28 melanoma
ACHN renal = test system: ACHN renal
SK-MEL-2 melanoma = test system: SK-MEL-2 melanoma
MOLT-4 leukemia = test system: MOLT-4 leukemia
COLO 205 colon = test system: COLO 205 colon
SK-OV-3 ovarian = test system: SK-OV-3 ovarian
HCT-15 colon = test system: HCT-15 colon
CCRF-CEM leukemia = test system: CCRF-CEM leukemia
PC-3 prostate = test system: PC-3 prostate
NCI-H522 lung = test system: NCI-H522 lung
T-47D breast = test system: T-47D breast
HOP-62 NSCLC = test system: HOP-62 NSCLC
K-562 leukemia = test system: K-562 leukemia
SF-539 CNS = test system: SF-539 CNS
RXF 393 renal = test system: RXF 393 renal
SR leukemia = test system: SR leukemia
HS 578T breast = test system: HS 578T breast
NCI/ADR-RES ovarian = test system: NCI/ADR-RES ovarian
KM12 colon = test system: KM12 colon
A549 NSCLC = test system: A549 NSCLC
BT-549 breast = test system: BT-549 breast
MALME-3M melanoma = test system: MALME-3M melanoma
OVCAR-3 ovarian = test system: OVCAR-3 ovarian
NCI-H23 lung = test system: NCI-H23 lung
SNB-19 CNS = test system: SNB-19 CNS
SF-268 CNS = test system: SF-268 CNS
MCF7 breast = test system: MCF7 breast
DU-145 prostate = test system: DU-145 prostate
NCI-H226 lung = test system: NCI-H226 lung
OVCAR-8 ovarian = test system: OVCAR-8 ovarian
MDA-MB-231 breast = test system: MDA-MB-231 breast
NCI-H460 lung = test system: NCI-H460 lung
SF-295 CNS = test system: SF-295 CNS
HT29 colon = test system: HT29 colon
HCT-116 colon = test system: HCT-116 colon
MDA-MB-435 = test system: MDA-MB-435
A498 renal = test system: A498 renal
IGROV1 ovarian = test system: IGROV1 ovarian
HOP-92 NSCLC = test system: HOP-92 NSCLC
TK-10 renal = test system: TK-10 renal

CC1(C)CCC(S(=O)(=O)c2ccc3c(c2)/C(=N\O)c2cc(S(=O)(=O)N4CCN(c5ccc(F)cc5O)CC4)ccc2-3)CC1
GI50 (EKVX NSCLC): 152 nM
TGI (EKVX NSCLC): 515 nM
GI50 (SK-MEL-5 melanoma): 179 nM
TGI (SK-MEL-5 melanoma): 326 nM
GI50 (LOX IMVI melanoma): 21.3 nM
TGI (LOX IMVI melanoma): 50.4 nM
GI50 (RPMI-8226 leukemia): 126 nM
TGI (RPMI-8226 leukemia): 1150 nM
GI50 (SN12C renal): 683 nM
GI50 (UACC-62 melanoma): 71.7 nM
TGI (UACC-62 melanoma): 221 nM
GI50 (U251 CNS): 105 nM
TGI (U251 CNS): 223 nM
GI50 (HCC-2998 colon): 104 nM
TGI (HCC-2998 colon): 262 nM
GI50 (UACC-257 melanoma): 165 nM
TGI (UACC-257 melanoma): 491 nM
GI50 (HL-60(TB) leukemia): 98.6 nM
TGI (HL-60(TB) leukemia): 288 nM
GI50 (CAKI-1 renal): 157 nM
TGI (CAKI-1 renal): 351 nM
GI50 (UO-31 renal): 188 nM
TGI (UO-31 renal): 460 nM
GI50 (OVCAR-4 ovarian): 63.5 nM
TGI (OVCAR-4 ovarian): 263 nM
GI50 (SW-620 colon): 46.7 nM
TGI (SW-620 colon): 168 nM
GI50 (SNB-75 CNS): 162 nM
TGI (SNB-75 CNS): 324 nM
GI50 (OVCAR-5 ovarian): 164 nM
TGI (OVCAR-5 ovarian): 367 nM
GI50 (786-0 renal): 186 nM
TGI (786-0 renal): 415 nM
GI50 (M14 melanoma): 35.2 nM
TGI (M14 melanoma): 144 nM
GI50 (SK-MEL-28 melanoma): 129 nM
TGI (SK-MEL-28 melanoma): 293 nM
GI50 (ACHN renal): 282 nM
TGI (ACHN renal): 1340 nM
GI50 (SK-MEL-2 melanoma): 73 nM
TGI (SK-MEL-2 melanoma): 204 nM
GI50 (MOLT-4 leukemia): 76.2 nM
TGI (MOLT-4 leukemia): 242 nM
GI50 (COLO 205 colon): 54.8 nM
TGI (COLO 205 colon): 183 nM
GI50 (SK-OV-3 ovarian): 109 nM
TGI (SK-OV-3 ovarian): 240 nM
GI50 (HCT-15 colon): 153 nM
TGI (HCT-15 colon): 445 nM
GI50 (CCRF-CEM leukemia): 93 nM
TGI (CCRF-CEM leukemia): 370 nM
GI50 (PC-3 prostate): 108 nM
TGI (PC-3 prostate): 314 nM
GI50 (NCI-H522 lung): 147 nM
TGI (NCI-H522 lung): 290 nM
GI50 (T-47D breast): 104 nM
TGI (T-47D breast): 234 nM
GI50 (HOP-62 NSCLC): 101 nM
TGI (HOP-62 NSCLC): 237 nM
GI50 (K-562 leukemia): 50.8 nM
TGI (K-562 leukemia): 188 nM
GI50 (SF-539 CNS): 127 nM
TGI (SF-539 CNS): 270 nM
GI50 (RXF 393 renal): 157 nM
TGI (RXF 393 renal): 314 nM
GI50 (SR leukemia): 29.3 nM
TGI (SR leukemia): 80.2 nM
GI50 (HS 578T breast): 163 nM
TGI (HS 578T breast): 448 nM
GI50 (NCI/ADR-RES ovarian): 443 nM
TGI (NCI/ADR-RES ovarian): 2630 nM
GI50 (KM12 colon): 47.9 nM
TGI (KM12 colon): 220 nM
GI50 (A549 NSCLC): 68 nM
TGI (A549 NSCLC): 218 nM
GI50 (BT-549 breast): 133 nM
TGI (BT-549 breast): 286 nM
GI50 (MALME-3M melanoma): 141 nM
TGI (MALME-3M melanoma): 295 nM
GI50 (OVCAR-3 ovarian): 117 nM
TGI (OVCAR-3 ovarian): 285 nM
GI50 (NCI-H23 lung): 230 nM
TGI (NCI-H23 lung): 583 nM
GI50 (SNB-19 CNS): 211 nM
TGI (SNB-19 CNS): 486 nM
GI50 (SF-268 CNS): 109 nM
TGI (SF-268 CNS): 286 nM
GI50 (MCF7 breast): 159 nM
TGI (MCF7 breast): 453 nM
GI50 (DU-145 prostate): 51.7 nM
TGI (DU-145 prostate): 284 nM
GI50 (NCI-H226 lung): 206 nM
TGI (NCI-H226 lung): 512 nM
GI50 (OVCAR-8 ovarian): 86.9 nM
TGI (OVCAR-8 ovarian): 402 nM
GI50 (MDA-MB-231 breast): 72.1 nM
TGI (MDA-MB-231 breast): 289 nM
GI50 (NCI-H460 lung): 66.1 nM
TGI (NCI-H460 lung): 223 nM
GI50 (SF-295 CNS): 176 nM
TGI (SF-295 CNS): 394 nM
GI50 (HT29 colon): 44 nM
TGI (HT29 colon): 182 nM
GI50 (HCT-116 colon): 33.2 nM
TGI (HCT-116 colon): 119 nM
GI50 (MDA-MB-435): 107 nM
TGI (MDA-MB-435): 251 nM
GI50 (A498 renal): 840 nM
TGI (A498 renal): 2630 nM
GI50 (IGROV1 ovarian): 149 nM
TGI (IGROV1 ovarian): 346 nM
GI50 (HOP-92 NSCLC): 219 nM
TGI (HOP-92 NSCLC): 504 nM

COc1ccc(Nc2nc3cc(C(F)(F)F)ccc3nc2C(=O)O)cc1OC
TGI (EKVX NSCLC): > 100000 nM
TGI (SK-MEL-5 melanoma): 47900 nM
TGI (LOX IMVI melanoma): > 100000 nM
TGI (RPMI-8226 leukemia): 92000 nM
TGI (SN12C renal): 64200 nM
TGI (UACC-62 melanoma): 53600 nM
TGI (U251 CNS): > 100000 nM
TGI (HCC-2998 colon): > 100000 nM
TGI (UACC-257 melanoma): > 100000 nM
TGI (HL-60(TB) leukemia): 72200 nM
TGI (CAKI-1 renal): 56300 nM
TGI (UO-31 renal): > 100000 nM
TGI (OVCAR-4 ovarian): > 100000 nM
TGI (SW-620 colon): > 100000 nM
TGI (SNB-75 CNS): > 100000 nM
TGI (OVCAR-5 ovarian): > 100000 nM
TGI (786-0 renal): > 100000 nM
TGI (M14 melanoma): > 100000 nM
TGI (TK-10 renal): > 100000 nM
TGI (SK-MEL-28 melanoma): > 100000 nM
TGI (ACHN renal): > 100000 nM
TGI (SK-MEL-2 melanoma): 33200 nM
TGI (MOLT-4 leukemia): 69500 nM
TGI (COLO 205 colon): 69300 nM
TGI (HCT-15 colon): > 100000 nM
TGI (CCRF-CEM leukemia): 67500 nM
TGI (PC-3 prostate): > 100000 nM
TGI (NCI-H522 lung): > 100000 nM
TGI (T-47D breast): > 100000 nM
TGI (HOP-62 NSCLC): > 100000 nM
TGI (K-562 leukemia): > 100000 nM
TGI (SF-539 CNS): 62300 nM
TGI (RXF 393 renal): 60200 nM
TGI (SR leukemia): 77000 nM
TGI (HS 578T breast): > 100000 nM
TGI (NCI/ADR-RES ovarian): > 100000 nM
TGI (KM12 colon): 88400 nM
TGI (A549 NSCLC): > 100000 nM
TGI (BT-549 breast): > 100000 nM
TGI (MALME-3M melanoma): > 100000 nM
TGI (OVCAR-3 ovarian): 93300 nM
TGI (NCI-H23 lung): 78900 nM
TGI (SNB-19 CNS): > 100000 nM
TGI (SF-268 CNS): > 100000 nM
TGI (MCF7 breast): 95300 nM
TGI (DU-145 prostate): > 100000 nM
TGI (NCI-H226 lung): 55600 nM
TGI (OVCAR-8 ovarian): > 100000 nM
TGI (MDA-MB-231 breast): 65600 nM
TGI (NCI-H460 lung): > 100000 nM
TGI (SF-295 CNS): 45500 nM
TGI (HT29 colon): > 100000 nM
TGI (HCT-116 colon): 95700 nM
TGI (MDA-MB-435): > 100000 nM
TGI (A498 renal): > 100000 nM
TGI (IGROV1 ovarian): > 100000 nM
TGI (HOP-92 NSCLC): 74900 nM
